Reference: ChEMBL document CHEMBL1152040, “The stereochemical requirements of the novel -opioid selective dipeptide antagonist TMT-Tic” (Bioorg Med Chem Lett, 1997)

Legend:
[1] = biological target: Delta-type opioid receptor (Mus musculus, UniProt P32300); experiment: The compound was evaluated for the binding affinity towards delta-opioid receptor by displacement of [3H]p-CI-DPDPE radioligand from mouse vas deferens; format: tissue-based
Mu-type opioid receptor = Mu-type opioid receptor (Cavia porcellus, UniProt P97266); experiment: The compound was evaluated for the binding affinity towards mu-opioid receptor by displacement of [3H]DAMGO radioligand from guinea pig ileum; format: tissue-based
Chain of Mu-type opioid receptor (P97266 whole entry): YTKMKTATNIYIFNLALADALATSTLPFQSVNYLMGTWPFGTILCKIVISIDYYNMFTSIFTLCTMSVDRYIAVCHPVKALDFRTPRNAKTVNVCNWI

Chain of Delta-type opioid receptor (P32300 whole entry): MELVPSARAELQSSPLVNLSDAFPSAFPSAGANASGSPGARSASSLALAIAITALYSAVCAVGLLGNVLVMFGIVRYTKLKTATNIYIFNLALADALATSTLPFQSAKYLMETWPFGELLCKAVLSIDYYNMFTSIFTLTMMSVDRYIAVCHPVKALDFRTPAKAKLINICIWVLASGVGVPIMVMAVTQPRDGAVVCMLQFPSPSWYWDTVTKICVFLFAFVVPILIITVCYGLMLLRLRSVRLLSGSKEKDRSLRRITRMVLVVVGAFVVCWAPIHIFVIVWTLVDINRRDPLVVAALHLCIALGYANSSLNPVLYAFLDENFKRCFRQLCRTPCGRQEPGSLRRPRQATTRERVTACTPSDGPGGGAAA

Structure (SMILES) | IC50 [1] | IC50 (Mu-type opioid receptor) | Ki [1] | Ki (Mu-type opioid receptor)
Cc1cc(O)cc(C)c1C(C)C(NC(=O)OC(C)(C)C)C(=O)N1Cc2ccccc2C[C@H]1C(=O)OCc1ccccc1 (some centres not stated) | 0.019 µM | 8.4 µM | – | –
Cc1cc(O)cc(C)c1[C@@H](C)[C@@H](N)C(=O)N1Cc2ccccc2C[C@H]1C(=O)O | > 10 µM | > 80 µM | – | –
Cc1cc(O)cc(C)c1[C@H](C)[C@@H](N)C(=O)N1Cc2ccccc2C[C@H]1C(=O)O | > 10 µM | > 80 µM | – | –
Cc1cc(O)cc(C)c1[C@@H](C)[C@H](N)C(=O)N1Cc2ccccc2C[C@H]1C(=O)O | 0.0093 µM | 35 µM | – | –
Cc1cc(O)cc(C)c1[C@H](C)[C@H](N)C(=O)N1Cc2ccccc2C[C@H]1C(=O)O | 0.124 µM | > 80 µM | – | –
NC(Cc1ccc(O)cc1)C(=O)N1Cc2ccccc2C[C@H]1C(=O)O (single isomer, unassigned) | – | – | 0.191 µM | 28.4 µM
